Measured values as given in ChEMBL document CHEMBL2380308, “Voulkensin C-E, new 11-oxocassane-type diterpenoids and a steroid glycoside from Caesalpinia volkensii stem bark and their antiplasmodial activities” (Bioorg Med Chem Lett, 2013).

Legend:
Plasmodium falciparum [1] = test: Antiplasmodial activity against Plasmodium falciparum W2; type: functional, organism-based
Plasmodium falciparum [2] = test: Antiplasmodial activity against Plasmodium falciparum D6; type: functional, organism-based

Row | Structure (SMILES) | IC50 (Plasmodium falciparum [1]) [µM] | IC50 (Plasmodium falciparum [2]) [µM]
1 | COC(=O)[C@]12CCC(C)(C)C[C@H]1C1=CC[C@@H]3[C@@]4(C)CC[C@H](OC(C)=O)C(C)(C)[C@@H]4CC[C@@]3(C)[C@]1(C)CC2 | 24.4 | 18.7
2 | C=C1C(CCOC(=O)/C=C/c2ccc(O)c(O)c2)=CC(=O)[C@H]2[C@H]1CC[C@H]1C(C)(C)CCC[C@]21C | 16.5 | 11.6
3 | C=C1C(CCO)=CC(=O)[C@H]2[C@H]1CC[C@H]1C(C)(C)CCC[C@]21C | 22.8 | 17.3
4 | C[C@H]1C(CCO)=CC(=O)[C@H]2[C@H]1CC[C@H]1C(C)(C)CCC[C@]21C | 15.6 | 18.7
5 | CC[C@H](/C=C/[C@@H](C)[C@H]1CC[C@H]2[C@@H]3CC=C4C[C@@H](O[C@@H]5OC[C@@H](O)[C@H](O)[C@H]5O[C@@H]5O[C@H](CO)[C@@H](O)[C@H](O)[C@H]5O)CC[C@]4(C)[C@H]3CC[C@]12C)C(C)C | 2.74 | 4.44
6 | CC(=O)O[C@@]1(C)CCC[C@]2(C)[C@H]3Cc4occc4[C@H](C)[C@@H]3CC[C@@]12O | 30.7 | 34.4
7 | CC(=O)O[C@@]1(C)CCC[C@@]2(C)[C@H]1CC[C@H]1[C@@H](C)c3ccoc3C[C@@H]12 | 30.3 | 25.7
8 | CC[C@H](CC[C@@H](C)[C@H]1CC[C@H]2[C@@H]3CC=C4C[C@@H](O)CC[C@]4(C)[C@H]3CC[C@]12C)C(C)C [BETA-SITOSTEROL] | > 50 | > 50
9 | CC1(C)CC[C@]2(C(=O)O)CC[C@]3(C)C(=CC[C@@H]4[C@@]5(C)CC[C@H](O)C(C)(C)[C@@H]5CC[C@]43C)[C@@H]2C1 [OLEANOLIC_ACID] | 26.2 | 23.8
10 | CC[C@H](/C=C/[C@@H](C)[C@H]1CC[C@H]2[C@@H]3CC=C4C[C@@H](O)CC[C@]4(C)[C@H]3CC[C@]12C)C(C)C [STIGMASTEROL] | > 50 | > 50
11 | C[C@H]1c2ccoc2C[C@H]2[C@H]1CC[C@@]1(O)C(C)(C)CCC[C@]21C [VOUCAPAN-5 ALPHA-OL] | > 50 | > 50
